# What was measured:
# rodent cells = tested on: rodent cells; set-up: method as in PMID 26603496; details: cited from earlier work
# [1] = set-up: method as in PMID 26603496; details: cited from earlier work
# [2] = Photo-uncaging efficiency (HPLC after irradiation at 365 nm); assay type: physicochemical; details: 10 min
# Protocol: Photolysis (photo-uncaging) of photocaged HDACi prodrugs was performed at room temperature using a UVP CL-1000 Crosslinker (Analytik Jena GmbH, Jena, Germany) equipped with five UV-A tubes (F8T5/BL368; λmax = 365 nm; Analytik Jena GmbH, Jena, Germany). Hereafter, this entire experimental set-up will be referred to as the “UV reactor”.
# For the photo-uncaging efficiency testing, 10 µL of a 1.0 mM DMSO solution of the respective compound was irradiated for 10 min using the UV reactor described above. Subsequently, 90 µL acetonitrile was added, and the samples were analyzed via HPLC. The amount of photo-cleaved HDACi was determined by comparison with a five-point calibration curve of the respective parent inhibitor, using HPLC/UV detection at an appropriate wavelength (area under the curve; area mAu*min).
# 2. Photouncaging Experiments
# Photolysis (photouncaging) of photocaged HDACi prodrugs was performed at room temperature using an UVP CL-1000 Crosslinker (Analytik Jena GmbH, Jena, Germany) equipped with five UV-A tubes (F8T5/BL368; λmax = 365 nm; Analytik Jena GmbH, Jena, Germany). Hereafter, this entire experimental set-up will be referred to as the "UV-reactor".
# For the deprotection experiments 10 µL of a 1.0 mM DMSO-solution of the respective compound were irradiated for 10 min using the UV-reactor described above. Subsequently, 90 µL acetonitrile were added and the samples were analyzed via HPLC. The amount of photo-cleaved HDACi was determined by comparison with a five-point calibration curve of the respective parent inhibitor using HPLC/UV detection at an appropriate wavelength (area under the curve; area mAu*min).
# Figure S5. Calibration curve of DDK-137 (I).
# [3] = tested on: human squamous carcinoma cell line Cal27; set-up: method as in PMID 31762274; details: cited from earlier work
# [4] = tested on: cisplatin-resistant Cal27CisR cells; set-up: method as in PMID 31762274; details: cited from earlier work
# [5] = tested on: human ovarian cancer cell line A2780; set-up: method as in PMID 31762274; details: cited from earlier work
smiles,measurement,setting,value
Cc1[nH]c2ccccc2c1CCNCc1ccc(/C=C/C(=O)NO)cc1 [panobinostat],chromosomal aberrations in rodent cells,rodent cells,provoke chromosomal aberrations
same,mutagenic activity in the Ames test,[1],mutagenic activity
"COc1cc(COC(=O)Nc2ccccc2NC(=O)c2ccc(CN(CC(=O)NCc3ccccc3)C(=O)c3ccc(N(C)C)cc3)cc2)c([N+](=O)[O-])cc1OC [pc-II, 4,5-Dimethoxy-2-nitrobenzyl-{2-[4-({N-[2-(benzylamino)-2-oxoethyl]-4-(dimethylamino)benzamido}methyl)benzamido]phenyl}carbamate]",melting point,,159 to 161 °C
same,behaviour under treatment with light,[2]; DMSO,decomposed
same,yield of photo-released parent inhibitor,"[2]; DMSO, HPLC with calibration curve",did not release the parent HDACi II in significant quantities
same,concentration of photo-released parent inhibitor after irradiation,[2]; initial concentration 100 µM,not detected
"CN(C)c1ccc(C(=O)N(CC(=O)NCc2ccccc2)Cc2ccc(C(=O)Nc3ccccc3N)cc2)cc1 [II, N-{4-[(2-aminophenyl)-carbamoyl]-benzyl}-N-[2-(benzylamino)-2-oxoethyl]-4-(dimethylamino)-benzamide]",antiproliferative effects in Cal27,[3],promising antiproliferative effects
same,reversal of cisplatin resistance,[4],capable of reversing cisplatin resistance
same,antiproliferative effects in A2780,[5],promising antiproliferative effects
O=C(CCCCCCC(=O)Nc1ccccc1)NO [Vorinostat],chromosomal aberrations in rodent cells,rodent cells,provoke chromosomal aberrations
same,mutagenic activity in the Ames test,[1],mutagenic activity
O=C(/C=C/c1cccc(S(=O)(=O)Nc2ccccc2)c1)NO [belinostat],chromosomal aberrations in rodent cells,rodent cells,provoke chromosomal aberrations
same,mutagenic activity in the Ames test,[1],mutagenic activity

# Reference: paper PMC10056348, “Photocaged Histone Deacetylase Inhibitors as Prodrugs in Targeted Cancer Therapy” (Pharmaceuticals, 2023)
